One data set addresses T1, MR1 (Homo sapiens, UniProt Q95460).
T1 construct: soluble human MR1 (residues 1-270 of the mature, leaderless protein); made in house
Briefly: Refolding of denatured MR1 and β2m with ligands. Type of data set: binding. To be noted: substance added to MR1/β2m refold. As to the method: Genes encoding soluble human MR1 (residues 1-270 of the mature, leaderless protein, lacking the transmembrane and cytoplasmic domains); or human β2m (mature, leaderless protein) were expressed for four hours in BL21 E. coli following induction with 1 mM isopropyl β-D-1-thiogalactopyranoside. E. coli were pelleted and resuspended in a buffer containing 50 mM Tris, 25% (w/v) sucrose, 1 mM EDTA, 10 mM DTT pH 8.0. Inclusion body protein was then extracted by lysis of bacteria in a buffer containing 50 mM Tris pH 8.0, 1% (w/v) Triton X-100, 1% (w/v) sodium deoxycholate, 100 mM NaCl, 10 mM DTT, 5 mM MgCl2, and 1 mg DnaseI per liter of starting culture; and subsequent steps involved homogenization with a polytron homogenizer, centrifugation, and washing inclusion body protein sequentially with firstly a buffer containing 50 mM Tris pH 8, […], 100 mM NaCl, 1 mM EDTA, 1 mM DTT, and secondly a buffer containing 50 mM Tris pH 8.0, 1 mM EDTA, 1 mM DTT. Inclusion body protein was then resuspended in a buffer containing 20 mM Tris pH 8.0, 8 M urea, 0.5 mM EDTA, 1 mM DTT, and following centrifugation the supernatant containing solubilized, denatured inclusion body protein was collected and stored at −80° C.
2 mg of 6-formyl pterin, 56 mg of denatured inclusion body MR1 protein, and 28 mg of β2m protein were added to a 400 ml refold buffer solution containing 0.1 M Tris pH 8.5, 2 mM EDTA, 0.4 M arginine, 0.5 mM oxidized glutathione, 5 mM reduced glutathione. Variably, 5M urea was either present or absent. Following an overnight incubation at 4° C., the refold buffer was dialysed against 3 changes of buffer containing 10 mM Tris, pH8.0 over a period of 24 hours. Refolded MR1-β2m-ligand complex was then purified by sequential DEAE (GE Healthcare) anion exchange, S75 16/60 (GE Healthcare) gel filtration, and MonoQ (GE Healthcare) anion exchange chromatography.

A short description of data set [1]: Stability of synthesised MR1 Ags. Type of data set: physicochemical. From the text:
Compounds 6,7-dimethyl-8-D-ribityllumazine (1), 7-hydroxy-6-methyl-8-D-ribityllumazine (2) and a 2 electron reduced form (3) of 6-hydroxymethyl-8-D-ribityllumazine were synthesised by modifications (FIG. 64) to reported literature procedures (for review see Plaut et al 1974). Their purities were established using proton NMR spectra and reversed phase HPLC traces. In brief, D-ribitylamine (6) was produced in 55% yield from D-(−)-ribose via its oxime intermediate. Condensation with 4-chlorouracil (7) followed by nitrosation provided the key intermediate (9) in reasonable yield (27%). The diaminouracil (10) was unstable, and therefore it was generated in situ, immediately before use, by reduction of the nitroso group with sodium hydrosulfite. Condensation with the corresponding α,β-dicarbonyl reagents at the optimal pH under a nitrogen atmosphere in the dark gave the products 1 and 2 after purification by preparative HPLC. […] For dimethyl analogue 1, three equivalents of 2,3-butadione gave a much purer crude product than reported in the literature, in which 6.6 equivalents gave a significant amount of bis-adduct and made purification difficult. […] Thus prolonged reaction and work-up procedures were best avoided. In contrast, a large excess of sodium pyruvate (9-18 eq) was key for efficient production of the 7-hydroxy analogue. […]

Another data set deals with Jurkat.LC13 line. Kind of data set: Activation of control Jurkat.LC13 line in the presence of C1R.HLA-B8 cells. Type of data set: cell-based, human. The source says: Next, to formally establish whether 7-hydroxy-6-methyl-8-ribityl lumazine and/or its precursor, 6,7-dimethyl-8-ribityl lumazine, could activate MAIT cells, both compounds were chemically synthesized their ability to enable MR1 refolding and to activate Jurkat.MAIT cells and human MAIT cells from peripheral blood tested. […] Thus, direct precursors of riboflavin biosynthesis activate MAIT cells.

T1 sequence (Q95460 23-292): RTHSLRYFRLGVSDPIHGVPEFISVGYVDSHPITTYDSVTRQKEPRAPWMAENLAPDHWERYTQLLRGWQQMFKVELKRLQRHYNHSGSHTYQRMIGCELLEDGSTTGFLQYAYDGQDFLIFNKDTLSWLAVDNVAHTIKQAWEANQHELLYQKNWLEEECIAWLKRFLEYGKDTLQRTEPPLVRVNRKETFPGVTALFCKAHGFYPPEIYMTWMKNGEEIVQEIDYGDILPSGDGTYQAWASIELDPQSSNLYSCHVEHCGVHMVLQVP
T1 sequence (P61769 21-119 partner): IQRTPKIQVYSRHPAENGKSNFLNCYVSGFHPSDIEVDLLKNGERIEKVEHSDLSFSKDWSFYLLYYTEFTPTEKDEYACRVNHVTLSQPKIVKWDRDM

For the molecule `Cc1nc2c(=O)[nH]c(=O)nc-2n(C[C@H](O)[C@H](O)[C@H](O)CO)c1C` [Compound 1, 6,7-dimethyl-8-D-ribityllumazine], the “Ability to refold MR1 into native MR1-β2m complex” value on MR1 is “could be refolded with MR1”. The Stability result in data set [1] is recorded as “unstable, particularly in solution”. Also, the “Activation of control Jurkat.LC13 line” value in the data set with Jurkat.LC13 line is recorded as “failed to activate”.
